Data taken from US7771978B2, “β1,4mannosyltransferases” (priority 2003, dated 2010).
Read-outs that look alike come from different tables or passages of the source.

Target: T1, Egghead β1-4-mannosyltransferase (Drosophila melanogaster, UniProt O01346)
T1 construct: a secreted version of egghead was prepared as described for the full length construct; made in house; host or cells: baculovirus-infected Sf9 and High Five insect cells (microsomal fractions)
T1 sequence (O01346 1-457): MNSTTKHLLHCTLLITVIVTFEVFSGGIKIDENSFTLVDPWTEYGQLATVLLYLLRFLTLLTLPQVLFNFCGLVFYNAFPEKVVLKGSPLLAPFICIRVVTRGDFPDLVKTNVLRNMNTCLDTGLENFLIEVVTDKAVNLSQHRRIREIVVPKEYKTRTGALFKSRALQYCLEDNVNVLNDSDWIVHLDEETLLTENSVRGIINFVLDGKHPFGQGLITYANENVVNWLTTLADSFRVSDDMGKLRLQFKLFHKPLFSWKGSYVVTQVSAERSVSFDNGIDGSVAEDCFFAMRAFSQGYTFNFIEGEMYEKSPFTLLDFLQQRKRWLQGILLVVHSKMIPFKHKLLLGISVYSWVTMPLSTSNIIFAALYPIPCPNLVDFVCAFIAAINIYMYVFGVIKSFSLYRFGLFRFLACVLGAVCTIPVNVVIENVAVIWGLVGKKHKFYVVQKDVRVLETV
Test: Egghead mannosyltransferase enzyme assay with soluble acceptor and donor substrates (microsomal fractions)
Type: biochemical
Conditions: for effect of divalent cation salt on enzyme activity: addition of 5 to 10 mM; for acceptor substrate activity (in words): microsomal fractions of High Five cells; for Substrate specificities of Egghead β1-4-mannosyltransferase, activity at 1 mM: acceptor substrate 1 mM; for Substrate specificities of Egghead β1-4-mannosyltransferase, activity at 1 mM / Substrate specificities of Egghead β1-4-mannosyltransferase, activity at 5 mM: microsomes of pVL-Egghead infected High Five cells, GalNAc-T4 background subtracted; for Substrate specificities of Egghead β1-4-mannosyltransferase, activity at 5 mM: acceptor substrate 5 mM; for donor substrate utilisation by egghead (in words): donor sugar nucleotides tested under similar conditions
Description: Initial assays of activity included a screen with high concentrations of monosaccharide substrates and different donor substrates.
An expression construct of the full coding region of egghead was prepared by RT-PCR using D. melanogaster mRNA and the sense primer Egh001 (5′-[…]-3′, SEQ ID NO: 4) with a BglII restriction site and the anti-sense primer Egh002 (5′-[…]-3′, SEQ ID NO: 5) with a XbaI restriction site. The resulting 1.1 Kb fragment was cloned into the BglII/XbaI sites of pVL1393 (PharMingen) and pVL1393-MYC. Furthermore an expression construct for a secreted version of egghead was prepared as described for the full length construct but using sense primer Egh003 (5′[…]-3′, SEQ ID NO: 6) with a BglII restriction site and the anti-sense primer Egh002. The resulting 1 Kb fragment was cloned into pAcGP67 Baculo-virus expression vector. Expression constructs pVL-egghead-full and pVL-egghead-Myc-full and pAcGP67-egghead-sol were co-transfected with Baculo-Gold™ DNA (Pharmingen) in Sf9 cells as described (12). Control constructs included pVL-GalNAc-T4-full (8) and pVL-brainiac-full (7). Standard enzyme assays were performed in 50 μl reaction mixtures containing 25 mM HEPES-KOH (pH 7.4), 10 mM MgCl2, 0.1% n-octylgalactoside (Sigma), and 100 μM GDP-[^14C]-Man (2,000 cpm/nmol) (Amersham), and varying concentration of acceptor substrates (purchased from Fluka, Merck, Sigma and Toronto Research Chemicals Inc; see Table I for structures). Assays with brainiac were carried out in the same reaction mixture except for addition of UDP-[^14C]GlcNAc (3,000 cpm/nmol) (Amersham) and MnCl2. Enzyme sources were microsomal fractions of baculo-virus infected Sf9 and High Five™ cells prepared essentially as described by Weis et al. (1998). Briefly, cells were lysed in lysis buffer (25 mM Tris-HCl pH 7.4, 250 mM Sucrose), after incubation 30 min on ice cells were homogenized and lysate centrifuged at 1000×G. Glycerol were added to 20% and membrane pellets were obtained by 100.000×g. Pellets were used at 10 mg/ml (Protein concentration determined by BCA, Pierce). Reaction products of soluble acceptors were quantified by chromatography on Dowex AG1-X8 (Sigma). Assays with glycosphingolipids included 5 mM 2-Acetamido-2-deoxy-D-Glucono-1,5-lactone (inhibitor of hexosaminidase activity), and products were purified on octadecyl-silica cartridges (Supelco) and analyzed by high performance thin-layer chromatography followed by autoradiography.

[1] = acceptor substrate, GDP-Man donor, read-out: apparent Km of acceptor substrate

## C[C@H](CCC(=O)NCCC[N+](C)(C)CCCS(=O)(=O)[O-])[C@H]1CC[C@H]2[C@@H]3[C@H](O)C[C@@H]4C[C@H](O)CC[C@]4(C)[C@H]3C[C@H](O)[C@]12C [CHAPS]
Concentration not given, to a lesser extent than n-octylgalactoside
  effect of CHAPS on egghead activity: activated

## [Ca+2].[Cl-].[Cl-] [CaCl2]
  effect of divalent cation salt on enzyme activity: had no effect

## O=C[C@H](O)[C@@H](O)[C@H](O)[C@H](O)CO [D-Glucose]
GDP-Man donor
  acceptor substrate activity (in words): marked increase in GDP-Man transferase activity

## C[C@@H]1O[C@H](Oc2ccc([N+](=O)[O-])cc2)[C@@H](O)[C@H](O)[C@@H]1O [Fucβ1-pNph]
GDP-Man donor
  Substrate specificities of Egghead β1-4-mannosyltransferase, activity at 1 mM: 0.0 nmol/h/mg
  Substrate specificities of Egghead β1-4-mannosyltransferase, activity at 5 mM: 0.0 nmol/h/mg

## Nc1nc2c(ncn2[C@@H]2O[C@H](COP(=O)(O)OP(=O)(O)O[C@H]3O[C@H](CO)[C@@H](O)[C@H](O)[C@@H]3O)[C@@H](O)[C@H]2O)c(=O)[nH]1 [GDP-Man, GDP-mannose]
Donor substrate, with n-octyl-β-Glc acceptor substrate, read-out: apparent Km for GDP-Man
  Km: 58 ± 6.2 µM
  donor substrate utilisation by egghead (in words): strict donor substrate specificity

## CC(=O)N[C@H]1[C@H](Oc2ccc([N+](=O)[O-])cc2)O[C@H](CO)[C@H](O)[C@@H]1O [GalNAcβ1-pNph]
GDP-Man donor
  Substrate specificities of Egghead β1-4-mannosyltransferase, activity at 1 mM: 0.0 nmol/h/mg

## Cc1cc(=O)oc2cc(O[C@@H]3O[C@H](CO)[C@H](O)[C@H](O)[C@H]3O)ccc12 [Galβ1-MeUmb]
GDP-Man donor
  Substrate specificities of Egghead β1-4-mannosyltransferase, activity at 1 mM: 0.0 nmol/h/mg

## CCCCCCCCO[C@@H]1O[C@H](CO)[C@H](O)[C@H](O)[C@H]1O [Galβ1-n-Octyl]
GDP-Man donor
  Substrate specificities of Egghead β1-4-mannosyltransferase, activity at 1 mM: 0.0 nmol/h/mg
  Substrate specificities of Egghead β1-4-mannosyltransferase, activity at 5 mM: 0.0 nmol/h/mg

## O=[N+]([O-])c1ccc(O[C@@H]2O[C@H](CO)[C@H](O)[C@H](O)[C@H]2O)cc1 [Galβ1-pNph]
GDP-Man donor
  Substrate specificities of Egghead β1-4-mannosyltransferase, activity at 1 mM: 0.0 nmol/h/mg

## CC(=O)N[C@H]1[C@H](Oc2ccc3c(C)cc(=O)oc3c2)O[C@H](CO)[C@@H](O)[C@@H]1O [GlcNAcβ1-MeUmb]
GDP-Man donor
  Substrate specificities of Egghead β1-4-mannosyltransferase, activity at 1 mM: 0.2 nmol/h/mg
  Substrate specificities of Egghead β1-4-mannosyltransferase, activity at 5 mM: 0.0 nmol/h/mg

## CC(=O)N[C@H]1[C@H](Oc2ccc([N+](=O)[O-])cc2)O[C@H](CO)[C@@H](O)[C@@H]1O [GlcNAcβ1-pNph]
GDP-Man donor
  Substrate specificities of Egghead β1-4-mannosyltransferase, activity at 1 mM: 0.0 nmol/h/mg

## Cc1cc(=O)oc2cc(O[C@@H]3O[C@H](CO)[C@@H](O)[C@H](O)[C@H]3O)ccc12 [Glcα1-MeUmb]
GDP-Man donor
  Substrate specificities of Egghead β1-4-mannosyltransferase, activity at 1 mM: 1.2 nmol/h/mg
  Substrate specificities of Egghead β1-4-mannosyltransferase, activity at 5 mM: 12.9 nmol/h/mg

## CCCCCCCCO[C@H]1O[C@H](CO)[C@@H](O)[C@H](O)[C@H]1O [Glcα1-n-Octyl]
GDP-Man donor
  Substrate specificities of Egghead β1-4-mannosyltransferase, activity at 1 mM: 3.6 nmol/h/mg
  Substrate specificities of Egghead β1-4-mannosyltransferase, activity at 5 mM: 6.5 nmol/h/mg

## Cc1cc(=O)oc2cc(O[C@@H]3O[C@H](CO)[C@@H](O)[C@H](O)[C@H]3O)ccc12 [Glcβ1-MeUmb]
GDP-Man donor
  Substrate specificities of Egghead β1-4-mannosyltransferase, activity at 1 mM: 330.0 nmol/h/mg
  Substrate specificities of Egghead β1-4-mannosyltransferase, activity at 5 mM: 611.4 nmol/h/mg

## [2H]C([2H])([2H])C([2H])([2H])C([2H])([2H])C([2H])([2H])C([2H])([2H])C([2H])([2H])C([2H])([2H])C([2H])([2H])OC1([2H])O[C@]([2H])(C([2H])([2H])O)[C@@]([2H])(O)[C@]([2H])(O)[C@@]1([2H])O (stereo partly drawn) [Glcβ1-n-Octyl, n-octyl-β-glucoside]
GDP-Man donor
  Substrate specificities of Egghead β1-4-mannosyltransferase, activity at 1 mM: 442.8 nmol/h/mg
  Substrate specificities of Egghead β1-4-mannosyltransferase, activity at 5 mM: 732.6 nmol/h/mg

## CCCCCCCCOC1O[C@H](CO)[C@@H](O)[C@H](O)[C@H]1O (stereo partly drawn) [Glcβ1-n-Octyl, n-octyl-β-glucoside]
[1]
  Km: 670 ± 80 µM

## O=[N+]([O-])c1ccc(O[C@@H]2O[C@H](CO)[C@@H](O)[C@H](O)[C@H]2O)cc1 [Glcβ1-pNph]
GDP-Man donor
  Substrate specificities of Egghead β1-4-mannosyltransferase, activity at 1 mM: 378.6 nmol/h/mg
  Substrate specificities of Egghead β1-4-mannosyltransferase, activity at 5 mM: 561.4 nmol/h/mg
[1]
  Km: 1100 ± 300 µM

## OC[C@H]1O[C@H](OCc2ccccc2)[C@@H](O)[C@@H](O)[C@@H]1O [Manα-1-Bzl]
GDP-Man donor
  Substrate specificities of Egghead β1-4-mannosyltransferase, activity at 1 mM: 0.0 nmol/h/mg

## CC(=O)N[C@H]1C(O)O[C@H](CO)[C@@H](O[C@@H]2O[C@H](CO)[C@@H](O)[C@H](O)[C@@H]2O)[C@@H]1O (stereo partly shown) [Manβ1-4GlcNAc]
GDP-Man donor
  acceptor substrate activity (in words): no activity
  Substrate specificities of Egghead β1-4-mannosyltransferase, activity at 1 mM: 0.0 nmol/h/mg
  Substrate specificities of Egghead β1-4-mannosyltransferase, activity at 5 mM: 0.0 nmol/h/mg

## CCCCCCCCO[C@@H]1O[C@H](CO)[C@@H](O[C@@H]2O[C@H](CO)[C@@H](O)[C@H](O)[C@@H]2O)[C@H](O)[C@H]1O [Manβ1-4Glcβ1-n-Octyl]
GDP-Man donor
  acceptor substrate activity (in words): no activity
  Substrate specificities of Egghead β1-4-mannosyltransferase, activity at 1 mM: 0.0 nmol/h/mg
  Substrate specificities of Egghead β1-4-mannosyltransferase, activity at 5 mM: 0.0 nmol/h/mg

## Cc1cc(=O)oc2cc(O[C@@H]3O[C@H](CO)[C@@H](O)[C@H](O)[C@@H]3O)ccc12 [Manβ1-MeUmb]
GDP-Man donor
  Substrate specificities of Egghead β1-4-mannosyltransferase, activity at 1 mM: 97 nmol/h/mg
  Substrate specificities of Egghead β1-4-mannosyltransferase, activity at 5 mM: 171.4 nmol/h/mg

## O=[N+]([O-])c1ccc(O[C@@H]2O[C@H](CO)[C@@H](O)[C@H](O)[C@@H]2O)cc1 [Manβ1-pNph]
GDP-Man donor
  Substrate specificities of Egghead β1-4-mannosyltransferase, activity at 1 mM: 98.6 nmol/h/mg
  Substrate specificities of Egghead β1-4-mannosyltransferase, activity at 5 mM: 182.9 nmol/h/mg
[1]
  Km: 2300 ± 500 µM

## [Cl-].[Cl-].[Mg+2] [MgCl2]
  effect of divalent cation salt on enzyme activity: activated

## [Cl][Mn][Cl] [MnCl2]
  effect of divalent cation salt on enzyme activity: activated

## CC(=O)N[C@H]1[C@@H](OP(=O)(O)OP(=O)(O)OC[C@H]2O[C@@H](n3ccc(=O)[nH]c3=O)[C@H](O)[C@@H]2O)O[C@H](CO)[C@H](O)[C@@H]1O [UDP-GalNAc]
  donor substrate utilisation by egghead (in words): did not utilize

## CC(=O)N[C@H]1[C@@H](OP(=O)(O)OP(=O)(O)OC[C@H]2O[C@@H](n3ccc(=O)[nH]c3=O)[C@H](O)[C@@H]2O)O[C@H](CO)[C@@H](O)[C@@H]1O [UDP-GlcNAc]
  donor substrate utilisation by egghead (in words): did not utilize

## Cc1cc(=O)oc2cc(O[C@@H]3OC[C@@H](O)[C@H](O)[C@H]3O)ccc12 [Xylβ1-MeUmb]
GDP-Man donor
  Substrate specificities of Egghead β1-4-mannosyltransferase, activity at 1 mM: 0.0 nmol/h/mg

## CCCCCCCCO[C@@H]1O[C@H](CO)[C@H](O)[C@H](O)[C@H]1O [n-octylgalactoside]
3.4 mM (0.1%), microsomal membranes
  effect of n-octylgalactoside on egghead activity: activated

## Triton X-100
Detergent at 0.1%, microsomal membranes
  effect of detergent on egghead activity: inhibited
